According to patent publication US8486891B2, “Nasal calcitonin formulations containing chlorobutanol” (Par Pharmaceutical, Inc., priority 2003, dated 2013):

Columns and labels:
[1] = tested on: rat trachea; assay: Inhibition of ciliary beating frequency of rat trachea; type: cell-based
Excerpt: The prior art teaches away from the use of chlorobutanol stating that at 0.6% concentration, the chlorobutanol caused more than 50% inhibition of ciliary beating frequency of rat trachea.

[2] = ingredient as supplied (EP grade); cited from earlier work
[3] = healthy volunteers, decongestant nasal spray containing the preservative; cited from earlier work
[4] = tested on: frog palate; details: ex vivo frog palate; Braga et al. 1992; cited from earlier work
[5] = tested on: respiratory mucosal tissue; details: in vitro exposure; Berg et al. 1994; cited from earlier work

## CC(C)(O)C(Cl)(Cl)Cl [chlorobutanol]
[1]; chlorobutanol concentration less than 0.4%
  effect on ciliary beating frequency of rat trachea: greatly reduced
[1]; chlorobutanol concentration of around 0.25%
  effect on ciliary beating frequency of rat trachea: totally eliminated

## Salmon Calcitonin [Salmon Calcitonin, EP]
[2]
  Potency: Potency of 6236 IU/mg

## benzalkonium chloride
[3]
  effect on rhinitis: aggravate rhinitis
[4]
  mucocilary transport velocity: significant slowing
[5]
  morphological effect on respiratory mucosal tissue: severe morphological alterations
